{"source": "patent US9561214B2", "about": "“Method of treatment using inhibitors of mitosis” (Array BioPharma Inc., priority 2008, dated 2017)", "key": {"[1]": {"experiment": "Determination of MTD in nude mice (HT-29 xenograft study)", "conditions": "mouse, in vivo; female nude mice with subcutaneous HT-29 xenografts; dissolved in normal saline", "method": "Female nude mice were implanted subcutaneously with 5×10^6 HT-29 cells in 100 μL PBS. Ten days later, tumors were measured and mice randomized into groups of three with average tumor volume in each group of approximately 240 mm^3. Compound 4 was dissolved in normal saline immediately before dosing. It was determined that 20 mg/kg was the MTD for Compound 4. Dose volume was 10 mL/kg. Dosing was vehicle alone on day 1; and Compound 4 at 20 mg/kg on day 1; and 20 mg/kg on days 1 and 3. At various time points after dosing (24, 48, 72, 96, 120 and 144 hours), mice were euthanized by CO2 inhalation, and the tumors were harvested and immediately placed in formalin. The vehicle control group samples were collected 24 and 72 hours after dosing. The day 1 group samples were collected 24, 48, 72 and 96 hours after that dose. The day 1 and day 3 group samples were collected 72, 96, 120 and 144 hours after the first dose. Paraffin blocks of tumor tissue were prepared by standard procedures. […] Spindle structures were manually counted in three 40× areas of each sample, using a fluorescent microscope. Apoptosis was quantitated by manual counting of TUNEL positive cells, also in three 40× areas of each sample (TUNEL staining using the In Situ Cell Death Detection Kit, AP from Roche)."}, "[2]": {"experiment": "Tumor growth inhibition on different dosing schedules (HT-29), tolerability", "assay_type": "in vivo", "conditions": "10 mg/kg IP on days 1, 2, 3, 4 and 5; female nude mice with HT-29 xenografts", "method": "Female nude mice were implanted subcutaneously with 5×10^6 HT-29 cells in 100 μL PBS. Eleven to fourteen days later, tumors were measured and mice randomized into groups of seven with average tumor volume in each group of approximately 230 mm^3. Compound 4 was dissolved in normal saline immediately prior to dosing, and administered IP at a volume of 10 mL/kg. Dosing was vehicle alone on day 1 and day 2; and Compound 4 at 20 mg/kg on day 1; 20 mg/kg on days 1 and 2; 20 mg/kg on days 1 and 3; 5 mg/kg on days 1, 2 and 3; 10 mg/kg on days 1, 2 and 3; 10 mg/kg on days 1, 2, 3, 4 and 5; 10 mg/kg on days 1 and 2; and 10 mg/kg on days 1 and 3. Animal weights and tumor volumes were measured (using electronic calipers) twice a week. Tumor volume was calculated using the formula: volume=(width^2×length)/2. Dosing at 10 mg/kg on days 1, 2, 3, 4 and 5 was not tolerated (greater than 20% weight loss and/or death in some of the mice)."}, "[3]": {"experiment": "Determination of MTD in a Phase 1 study in patients with solid tumors", "assay_type": "in vivo", "excerpt": "A total of 13 patients with various solid tumors and with a median age of 66 years (range 40-79 years old) were enrolled in a human phase 1 clinical trial (see “Phase I Safety and Pharmacokinetic Study of ARRY-520 in Solid Tumors.” http://clinicaltrials.gov/ct2/show/NCT00462358, herein incorporated by reference). The solid tumors treated were breast cancer (2), colorectal cancer (2), non-small cell lung cancer (2), pancreatic cancer (2), bladder cancer, salivary gland cancer (adenoid cystic), esophageal cancer, mesothelioma cancer, and a mixed small cell lung cancer/non-small cell lung cancer. Compound 4 was provided for administration as a lyophilized powder contained in a Type 1 clear glass vial for IV use. The dose levels administered were 1.25 and 1.6 mg/m^2/day of Compound 4 on Days 1 and 2 every two weeks."}}, "data": [{"compound": "CON(C)C(=O)N1N=C(c2cc(F)ccc2F)S[C@@]1(CCCN)c1ccccc1", "note": "[Compound 4, (S)-2-(3-aminopropyl)-5-(2,5-difluorophenyl)-N-methoxy-N-methyl-2-phenyl-1,3,4-thiadiazole-3(2H)-carboxamide]", "values": [{"measurement": "MTD", "setting": "[1]", "result": 20, "unit": "mg/kg"}, {"measurement": "tolerability of dosing schedule", "setting": "[2]", "result": "not tolerated"}, {"measurement": "weight loss and/or death in some of the mice", "setting": "[2]", "result": "greater than 20%"}, {"measurement": "MTD", "setting": "[3]; IV on Days 1 and 2 every two weeks, 13 patients with solid tumors, dose levels 1.25 and 1.6 mg/m^2/day", "result": 1.25, "unit": "mg/m^2/day"}, {"measurement": "MTD, cumulative dose per cycle", "setting": "[3]; IV on Days 1 and 2 every two weeks, patients with solid tumors", "result": 2.5, "unit": "mg/m^2"}, {"measurement": "DLTs", "setting": "[3]; human, in vivo, iv", "result": "Grade 3 hyponatremia, anorexia, AST increase and febrile neutropenia"}]}]}
